Values quoted from earlier work as cited in patent US11646117B2, “Matrix factorization of antibiogram metadata” (priority 2019, dated 2023).
Where two headings read alike, the source gives them in different places.

System: Klebsiella pneumoniae (biosample SAMN07265011, strain DHQP1605752_NV)
Details: for Measurement (MIC): CLSI; for Resistance phenotype: testing standard CLSI

| Compound | Measurement (MIC) (laboratory typing method MIC) [µg/mL] | Resistance phenotype | Measurement (MIC) (MIC, platform Agar dilution) [µg/mL] | Measurement (MIC) (MIC, platform Etest) [µg/mL] |
| --- | --- | --- | --- | --- |
| NCC[C@H](O)C(=O)N[C@@H]1C[C@H](N)[C@@H](O[C@H]2O[C@H](CN)[C@@H](O)[C@H](O)[C@H]2O)[C@H](O)[C@H]1O[C@H]1O[C@H](CO)[C@@H](O)[C@H](N)[C@H]1O [amikacin] | > 64 | resistant |  |  |
| CC1(C)S[C@@H]2[C@H](NC(=O)[C@H](N)c3ccccc3)C(=O)N2[C@H]1C(=O)O [ampicillin] | > 32 | resistant |  |  |
| C[C@H]1[C@H](NC(=O)/C(=N\OC(C)(C)C(=O)O)c2csc(N)n2)C(=O)N1S(=O)(=O)O [aztreonam] | > 64 | resistant |  |  |
| Cc1nnc(SCC2=C(C(=O)O)N3C(=O)[C@@H](NC(=O)Cn4cnnn4)[C@H]3SC2)s1 [cefazolin] | > 8 | resistant |  |  |
| CO/N=C(\C(=O)N[C@@H]1C(=O)N2C(C(=O)[O-])=C(C[N+]3(C)CCCC3)CS[C@H]12)c1csc(N)n1 [cefepime] | > 32 | resistant |  |  |
| CO/N=C(\C(=O)N[C@@H]1C(=O)N2C(C(=O)O)=C(COC(C)=O)CS[C@H]12)c1csc(N)n1 [cefotaxime] | > 64 | resistant |  |  |
| CO[C@@]1(NC(=O)Cc2cccs2)C(=O)N2C(C(=O)O)=C(COC(N)=O)CS[C@@H]21 [cefoxitin] | > 16 | resistant |  |  |
| CC(C)(O/N=C(\C(=O)N[C@@H]1C(=O)N2C(C(=O)[O-])=C(C[n+]3ccccc3)CS[C@H]12)c1csc(N)n1)C(=O)O [ceftazidime] | > 128 | resistant |  |  |
| CO/N=C(\C(=O)N[C@@H]1C(=O)N2C(C(=O)O)=C(CSc3nc(=O)c(=O)[nH]n3C)CS[C@H]12)c1csc(N)n1 [ceftriaxone] | > 32 | resistant |  |  |
| O=C(N[C@H](CO)[C@H](O)c1ccc([N+](=O)[O-])cc1)C(Cl)Cl [chloramphenicol] | > 16 | resistant |  |  |
| C[C@@H](O)[C@H]1C(=O)N2C(C(=O)O)=C(S[C@@H]3CN[C@H](CNS(N)(=O)=O)C3)[C@H](C)[C@H]12 [doripenem] | > 8 | resistant |  |  |
| C[C@@H](O)[C@H]1C(=O)N2C(C(=O)O)=C(S[C@@H]3CN[C@H](C(=O)Nc4cccc(C(=O)O)c4)C3)[C@H](C)[C@H]12 [ertapenem] | > 8 | resistant |  |  |
| C[C@@H]1O[C@@H]1P(=O)(O)O [fosfomycin] |  |  | 32 | 16 |
| C[C@@H](O)[C@H]1C(=O)N2C(C(=O)O)=C(S[C@@H]3CN[C@H](C(=O)N(C)C)C3)[C@H](C)[C@H]12 [meropenem] | > 8 | resistant |  |  |
| CN(C)c1cc(NC(=O)CNC(C)(C)C)c(O)c2c1C[C@H]1C[C@H]3[C@H](N(C)C)C(O)=C(C(N)=O)C(=O)[C@@]3(O)C(O)=C1C2=O [tigecycline] | 4 | intermediate |  |  |
| NC[C@H]1O[C@H](O[C@H]2[C@H](O)[C@@H](O[C@H]3O[C@H](CO)[C@@H](O)[C@H](N)[C@H]3O)[C@H](N)C[C@@H]2N)[C@H](N)C[C@@H]1O [tobramycin] | > 16 | resistant |  |  |
| colistin | > 8 |  |  |  |
| gentamicin | > 16 | resistant |  |  |
| polymyxin B | > 8 |  |  |  |
